# Laboratory results: publication PMC8991007, “Benzylic Dehydroxylation of Echinocandin Antifungal Drugs Restores Efficacy against Resistance Conferred by Mutated Glucan Synthase” (Journal of the American Chemical Society, 2022)
# *1 amine or outer side, *2 acyl side, *3 side chain or, on linkers, in order; H or OH if unused. Where a SMILES comes first, the peptide text is derived from it. Bridges are numbered along the chain shown (N, C = ends). [ ]: non-standard residue; d: D form. The star is where a group is joined. hTyr(3S-OH,4S-OH,3'-OSO3H) = N[C@H](C(=O)O)[C@H](O)[C@@H](O)c1ccc(O)c(OS(=O)(=O)O)c1; Orn(4R-OH,5R-OH) = O=C([C@H](C[C@@H](O)[C@@H](O)N[*:3])N[*:1])[*:2]; Pro(3S-OH,4S-Me) = C[C@H]1CN[C@H](C(=O)O)[C@H]1O; X1 = CCCCCOc1ccc(-c2cc(-c3ccc(C(=O)*)cc3)no2)cc1; Gln(3R-OH) = NC(=O)C[C@@H](O)[C@H](N)C(=O)O; Hyp = O=C(O)[C@@H]1C[C@@H](O)CN1
# Tests used:
# C. albicans = experiment: Minimum inhibitory concentration broth double-dilution assay; type: cell-based, Candida albicans; details: 24 h, 30 °C
# Description: (§1) The antifungal activities of compounds 1 and 2 were evaluated against a panel of 50 strains of C. albicans and C. glabrata (Table S4), including echinocandin-resistant strains that were constructed by introducing mutations within and near the defined hotspots in the FKS1 and/or FKS2 genes.[27] To evaluate antifungal activity, we determined MIC values. The MIC was defined as the lowest drug concentration that led to turbidity (measured at 600 nm) of less than or equal to 35% of that of the untreated culture. As controls, we tested CSF, MCF, ANF, and RZF.
# (§2) All of the tested compounds were dissolved in anhydrous DMSO to a concentration of 5 mg/mL. Candida strains were streaked from a glycerol stock onto YPAD agar plates and grown for 24 h at 30 °C. Colonies were suspended in 1 mL of PBS and diluted to an O.D. of 0.01 at 600 nm with YPAD broth and added into flat-bottom 96-well microplates (Corning) containing a gradient of twofold dilutions per tested compound with concentrations ranging from 64 to 0.0009 μg/mL. Control wells with no drug and blank wells without yeast cells containing YPAD only were also prepared. […] Each concentration was tested in triplicate, and results were confirmed by at least two independent sets of experiments.
# C. glabrata = experiment: as above; type: cell-based, Candida glabrata; details: 24 h, 30 °C
# Description: as §1, §2
# [1] = #2 C. albicans DPL1015 (DP-A15)
# [2] = #3 C. albicans DPL1016 (DP-A15-10)
SMILES,MIC (C. albicans; #1 C. albicans Sc5314) [µg/mL],MIC (C. albicans; [1]) [µg/mL],MIC (C. albicans; [2]) [µg/mL],MIC (C. albicans; #4 C. albicans T-2068 (DP-C42)) [µg/mL],MIC (C. albicans; #5 C. albicans T-2069 (DP-85)) [µg/mL],MIC (C. albicans; #6 C. albicans (DP-89)) [µg/mL],MIC (C. albicans; #7 C. albicans T-2076 (DP-194)) [µg/mL],MIC (C. albicans; #8 C. albicans T-2077 (DP-205)) [µg/mL],MIC (C. glabrata; #9 C. glabrata EF1620) [µg/mL],MIC (C. glabrata; #10 C. glabrata TGL00277) [µg/mL],MIC (C. glabrata; #11 C. glabrata TGL00275) [µg/mL],MIC (C. glabrata; #12 C. glabrata CST78) [µg/mL],MIC (C. glabrata; #13 C. glabrata TGL00265) [µg/mL],MIC (C. glabrata; #14 C. glabrata TGL00264) [µg/mL],MIC (C. glabrata; #15 C. glabrata TGL00263) [µg/mL],MIC (C. glabrata; #16 C. glabrata TGL00065) [µg/mL],MIC (C. glabrata; #17 C. glabrata CST34) [µg/mL],MIC (C. glabrata; #18 C. glabrata TGL00258) [µg/mL],MIC (C. glabrata; #19 C. glabrata TGL00256) [µg/mL],MIC (C. glabrata; #20 C. glabrata TGL00107) [µg/mL],other results
"CC[C@H](C)C[C@H](C)CCCCCCCCC(=O)N[C@H]1C[C@@H](O)[C@@H](NCCN)NC(=O)[C@@H]2[C@@H](O)CCN2C(=O)[C@H]([C@H](O)CCN)NC(=O)[C@H]([C@H](O)[C@@H](O)c2ccc(O)cc2)NC(=O)[C@@H]2C[C@@H](O)CN2C(=O)[C@H]([C@@H](C)O)NC1=O [CSF, caspofungin]",0.015,1,> 64,32,16,> 64,1,16,0.031,> 64,32,0.015,> 64,4,64,> 64,0.015,> 64,16,> 64,MIC (C. glabrata; #21 C. glabrata TGL00056): > 64 µg/mL; MIC (C. glabrata; #22 C. glabrata M12): 0.015 µg/mL; MIC (C. glabrata; #23 C. glabrata TGL00270): > 64 µg/mL; MIC (C. glabrata; #24 C. glabrata TGL00269): 16 µg/mL; MIC (C. glabrata; #25 C. glabrata TGL00268): > 64 µg/mL; MIC (C. glabrata; #26 C. glabrata TGL00268): > 64 µg/mL; MIC (C. glabrata; #27 C. glabrata EB0911): 0.031 µg/mL; MIC (C. glabrata; #28 C. glabrata TGL00261): > 64 µg/mL; MIC (C. glabrata; #29 C. glabrata TGL00109): 64 µg/mL; MIC (C. glabrata; #30 C. glabrata TGL00259): > 64 µg/mL
"CCCCCOc1ccc(-c2cc(-c3ccc(C(=O)N[C@H]4C[C@@H](O)[C@@H](O)NC(=O)[C@@H]5[C@@H](O)[C@@H](C)CN5C(=O)[C@H]([C@H](O)CC(N)=O)NC(=O)[C@H]([C@H](O)[C@@H](O)c5ccc(O)c(OS(=O)(=O)O)c5)NC(=O)[C@@H]5C[C@@H](O)CN5C(=O)[C@H]([C@@H](C)O)NC4=O)cc3)no2)cc1 [MCF, micafungin] (X1-[Orn(4R-OH,5R-OH)]T[Hyp][hTyr(3S-OH,4S-OH,3'-OSO3H)][Gln(3R-OH)][Pro(3S-OH,4S-Me)]; lactam 1-C)",0.031,1,16,4,2,4,1,2,0.015,8,2,0.004,1,> 64,0.125,32,0.002,> 64,0.125,> 64,MIC (C. glabrata; #21 C. glabrata TGL00056): > 64 µg/mL; MIC (C. glabrata; #22 C. glabrata M12): 0.002 µg/mL; MIC (C. glabrata; #23 C. glabrata TGL00270): 16 µg/mL; MIC (C. glabrata; #24 C. glabrata TGL00269): 0.125 µg/mL; MIC (C. glabrata; #25 C. glabrata TGL00268): > 64 µg/mL; MIC (C. glabrata; #26 C. glabrata TGL00268): > 64 µg/mL; MIC (C. glabrata; #27 C. glabrata EB0911): 0.008 µg/mL; MIC (C. glabrata; #28 C. glabrata TGL00261): 4 µg/mL; MIC (C. glabrata; #29 C. glabrata TGL00109): > 64 µg/mL; MIC (C. glabrata; #30 C. glabrata TGL00259): 32 µg/mL
